Experimental data taken from publication PMC3492916 (Molecular Nutrition & Food Research, 2011).
“Also recorded” adds a separate entry of the source.

Experiments:
PBCEC monolayer = test: TEER measurement; type: cell-based, porcine; conditions: for Influence on barrier integrity (TEER): 10 μM (a) or 10 μM (a/b), in comparison to the control
PBCEC [1] = test: Cytotoxicity; type: cell-based, porcine; conditions: 24 h; for Impact on cell viability (CCK-8 assay): up to a concentration of 20 mM (so in the source), with corresponding -inine form
[2] = Permeability across PBCEC monolayers on Transwell filters; conditions: pig
PBCEC monolayers [3] = test: as above; conditions: apical addition; for Time of maximum of permeation into basolateral compartment / Maximum of permeation into basolateral compartment: EM and ET 10 μM, EC 1 μM; for Maximum of permeation into basolateral compartment: t = 0 h as 100%
PBCEC [4] = test: Fluorescence microscopy of occludin and cell nuclei; type: cell-based, porcine; conditions: 10 μM a/b, 24 h
[5] = Active transport study, equal concentrations in both compartments; conditions: pig, PBCEC monolayers
PBCEC monolayers [6] = test: as above; conditions: for Enrichment of substance concentration in one compartment: ET 10 μM, EC 1 μM a/b, over 48 h
P-glycoprotein = P-glycoprotein (Sus scrofa, UniProt K7GMM7); test: Active transport study with inhibitor PSC 833; type: in vitro ADME, porcine
Pgp = conditions: cited from earlier work
BCRP/ABCG2 = molecular target: T1, BCRP/ABCG2 (Sus scrofa, UniProt Q8MIB3); test: Active transport study with inhibitor Fumitremorgin C; type: in vitro ADME, porcine
T1 sequence (Q8MIB3 1-656): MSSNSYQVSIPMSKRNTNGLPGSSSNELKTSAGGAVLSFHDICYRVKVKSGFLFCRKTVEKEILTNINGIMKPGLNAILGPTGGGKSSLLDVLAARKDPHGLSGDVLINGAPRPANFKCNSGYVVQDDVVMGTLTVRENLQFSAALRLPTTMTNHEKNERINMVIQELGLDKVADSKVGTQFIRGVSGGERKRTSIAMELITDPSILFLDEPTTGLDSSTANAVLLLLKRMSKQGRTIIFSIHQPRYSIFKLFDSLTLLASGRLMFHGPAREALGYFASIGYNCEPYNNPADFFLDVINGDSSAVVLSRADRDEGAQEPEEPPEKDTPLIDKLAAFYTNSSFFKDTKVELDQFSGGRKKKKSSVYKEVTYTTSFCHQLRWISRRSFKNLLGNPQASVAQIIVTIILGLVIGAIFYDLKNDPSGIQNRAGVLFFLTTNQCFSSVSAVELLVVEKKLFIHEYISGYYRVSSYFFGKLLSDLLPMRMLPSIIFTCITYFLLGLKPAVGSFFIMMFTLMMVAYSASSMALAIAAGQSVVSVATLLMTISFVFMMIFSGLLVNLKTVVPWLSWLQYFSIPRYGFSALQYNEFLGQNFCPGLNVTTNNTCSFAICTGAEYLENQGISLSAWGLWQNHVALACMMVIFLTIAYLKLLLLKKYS

[7] = cited from earlier work
Caco-2 = Caco-2 model, after 6 h; cited from earlier work
[8] = 10 μM inhibitor a/b, preincubated 1 h, EM 10 μM a/b

Sequence of P-glycoprotein (K7GMM7 1-1248): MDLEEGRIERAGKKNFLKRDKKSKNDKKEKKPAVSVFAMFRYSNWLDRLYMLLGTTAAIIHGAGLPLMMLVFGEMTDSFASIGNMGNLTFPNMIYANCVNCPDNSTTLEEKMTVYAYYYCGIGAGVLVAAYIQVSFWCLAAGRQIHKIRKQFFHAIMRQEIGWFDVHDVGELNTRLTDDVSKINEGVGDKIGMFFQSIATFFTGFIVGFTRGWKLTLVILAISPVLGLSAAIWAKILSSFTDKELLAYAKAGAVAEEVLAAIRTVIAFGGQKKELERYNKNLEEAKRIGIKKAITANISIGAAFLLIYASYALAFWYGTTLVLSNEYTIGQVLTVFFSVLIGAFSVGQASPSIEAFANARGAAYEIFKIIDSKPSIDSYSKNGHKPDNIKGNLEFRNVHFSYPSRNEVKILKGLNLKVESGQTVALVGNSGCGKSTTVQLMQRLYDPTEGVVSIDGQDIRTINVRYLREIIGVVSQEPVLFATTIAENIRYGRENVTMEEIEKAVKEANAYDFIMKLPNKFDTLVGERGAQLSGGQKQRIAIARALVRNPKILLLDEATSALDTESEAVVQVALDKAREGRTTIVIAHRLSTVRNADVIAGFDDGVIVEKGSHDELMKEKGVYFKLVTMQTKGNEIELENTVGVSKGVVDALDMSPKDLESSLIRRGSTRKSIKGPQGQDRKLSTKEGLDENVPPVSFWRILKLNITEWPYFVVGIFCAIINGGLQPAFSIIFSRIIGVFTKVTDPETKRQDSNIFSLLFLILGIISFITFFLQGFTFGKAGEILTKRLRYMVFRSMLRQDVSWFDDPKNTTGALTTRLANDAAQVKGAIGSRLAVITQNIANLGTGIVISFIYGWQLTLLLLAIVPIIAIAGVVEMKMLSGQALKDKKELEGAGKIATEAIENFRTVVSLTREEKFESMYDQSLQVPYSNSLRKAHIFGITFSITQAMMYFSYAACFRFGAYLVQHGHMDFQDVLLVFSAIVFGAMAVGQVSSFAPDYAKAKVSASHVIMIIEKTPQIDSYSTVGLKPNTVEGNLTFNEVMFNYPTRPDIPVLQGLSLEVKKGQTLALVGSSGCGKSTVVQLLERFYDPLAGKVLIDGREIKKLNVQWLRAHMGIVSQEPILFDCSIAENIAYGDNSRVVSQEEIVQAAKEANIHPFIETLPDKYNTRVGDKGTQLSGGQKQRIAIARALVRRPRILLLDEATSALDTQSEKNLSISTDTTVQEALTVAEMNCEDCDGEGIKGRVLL

Compound: CC(C)[C@@]1(NC(=O)[C@@H]2C=C3c4cccc5[nH]cc(c45)C[C@H]3N(C)C2)O[C@@]2(O)[C@@H]3CCCN3C(=O)[C@H](Cc3ccccc3)N2C1=O [EC, ergocristine]
- Effect on barrier integrity (TEER) (PBCEC monolayer; 1 μM (a)): no effect
- TEER, % of initial TEER (PBCEC monolayer; 1 μM (a/b)): about 80%
- TEER, % of initial TEER (PBCEC monolayer; 5 μM (a)): about 80%
- TEER, % of the starting value (PBCEC monolayer; 5 μM (a/b)): 50–70%
- TEER, % of the starting value (PBCEC monolayer; 5 μM (b)): 50–70%
- TEER, % of the starting value (PBCEC monolayer; 10 μM (a)): 50–70%
- TEER, % of the starting value (PBCEC monolayer; 10 μM (b)): 50–70%
- TEER of incubated samples (PBCEC monolayer; 10 mM (so in the source) a/b, 24 h, samples of immunostaining, control >1000): < 200 Ωcm^2
- Concentration at which significant differences in cell viability start (PBCEC [1]; CCK-8): 5 µM
- Concentration at which significant results in cell viability start (PBCEC [1]; CCK-8, Figure 2 legend): 5000 µM
- Cell viability (CCK-8 assay) (PBCEC [1]; from 5 μM, in equilibrium with -inine form): 85 % of the control
- Papp A→B [2]: 20.5 ×10⁻⁶ cm/s
- Papp B→A [2]: 26.1 ×10⁻⁶ cm/s
- Concentration in basolateral compartment (PBCEC monolayers [3]; 1 μM, after 24 h): 32%
- Time of maximum of permeation into basolateral compartment (PBCEC monolayers [3]): 6 h
- Maximum of permeation into basolateral compartment (PBCEC monolayers [3]): 49%
- Immunostaining of occludin and cell nuclei (PBCEC [4]): disrupted cells could be visualized by the absence of nuclei
- recovery at 48 h, 1 µM [5]: 60%
- Enrichment of substance concentration in one compartment (PBCEC monolayers [6]): no enrichment

Compound: C[C@@H](CO)NC(=O)[C@@H]1C=C2c3cccc4[nH]cc(c34)C[C@H]2N(C)C1 [EM, ergometrine]
- Concentration in apical compartment, % of the initial concentration (P-glycoprotein; EM 10 μM a/b with PSC 833 10 μM a/b, after 48 h): 110%
- Pgp inhibition (Pgp): Pgp inhibitors
- Influence on barrier integrity (TEER) (PBCEC monolayer; 1 μM (a), 24 h): No influence; also recorded: no impact on barrier integrity
- Impact on cell viability (CCK-8 assay) (PBCEC [1]): no impact
- Papp A→B [2]: 1.05 ×10⁻⁶ cm/s
- Papp B→A [2]: 6.05 ×10⁻⁶ cm/s
- Time before which first traces were not detectable in basolateral compartment (PBCEC monolayers [3]; 10 μM): ≥ 6 h
- Time of maximum of permeation into basolateral compartment (PBCEC monolayers [3]): 24 h
- Maximum of permeation into basolateral compartment (PBCEC monolayers [3]): 29%
- Concentration in apical compartment, % of the initial concentration (PBCEC monolayers [6]; 10 μM a/b, after 24 h): about 117%
- Total enrichment in apical compartment (PBCEC monolayers [6]; 10 μM a/b, after 48 h): 130%
- Substance in cell lysate (PBCEC monolayers [6]; 10 μM a/b, during the whole experiment (48 h)): no EM was detectable in cell lysate
- Transporter substrate property (BCRP/ABCG2; concluded from total inhibition by FTC): substrate for BCRP/ABCG2 transporter

Compound: CN1C[C@H](C(=O)N[C@]2(C)O[C@@]3(O)[C@@H]4CCCN4C(=O)[C@H](Cc4ccccc4)N3C2=O)C=C2c3cccc4[nH]cc(c34)C[C@H]21 [ET, ergotamine]
- Pgp inhibition (Pgp): Pgp inhibitors
- Influence on barrier integrity (TEER) (PBCEC monolayer; 1 μM (a), 24 h): No influence; also recorded: no impact on barrier integrity
- Impact on cell viability (CCK-8 assay) (PBCEC [1]): no impact
- Papp A→B [2]: 11.9 ×10⁻⁶ cm/s
- Papp B→A [2]: 18 ×10⁻⁶ cm/s
- efflux ratio at 24 h, 10 μM [2]: < 2
- Time of maximum of permeation into basolateral compartment (PBCEC monolayers [3]): 12 h
- Maximum of permeation into basolateral compartment (PBCEC monolayers [3]): 40%
- Enrichment of substance concentration in one compartment (PBCEC monolayers [6]): no enrichment
- Detection in CSF ([7]; 18 patients, different application methods): no ergotamine in CSF
- Oral bioavailability ([7]; humans, peptide ergot alkaloids like ergotamine): less than 2%
- Concentration in cerebrospinal fluid (CSF) ([7]; ten patients): 0.4 ng/mL

Compound: COc1ccc2c3c([nH]c2c1)[C@H](C=C(C)C)N1C(=O)[C@@H]2CCCN2C(=O)[C@@H]1C3 [FTC, Fumitremorgin C]
- Influence of inhibitor on the transport of EM (BCRP/ABCG2; [8]): total inhibition of the transport process

Compound: C/C=C/C[C@@H](C)C(=O)[C@H]1C(=O)N[C@@H](C(C)C)C(=O)N(C)CC(=O)N(C)[C@@H](CC(C)C)C(=O)N[C@@H](C(C)C)C(=O)N(C)[C@@H](CC(C)C)C(=O)N[C@@H](C)C(=O)N[C@H](C)C(=O)N(C)[C@@H](CC(C)C)C(=O)N(C)[C@@H](CC(C)C)C(=O)N(C)[C@@H](C(C)C)C(=O)N1C [PSC, PSC 833]
- Influence of inhibitor on the transport of EM (P-glycoprotein; [8]): lagging of enrichment in the apical compartment

Compound: ergovaline/ ergovalinine
- Initial concentration reaching the other compartment (Caco-2): 40%
